Reference: patent publication US6486185B1, “3-heteroarylidene-2-indolinone protein kinase inhibitors” (Sugen, Inc., priority 1997, dated 2002)

These compounds were tested against HER2 Kinase (Homo sapiens, UniProt P04626) (assay: HER-2 ELISA: EGF receptor-HER2 chimeric receptor assay in whole cells). Conditions: 50% inhibition of PTK activity over control.
Format: cell-based
Experimental: The cellular/catalytic assays described herein are performed in an ELISA format. […] The cells are lysed and the lysate is transferred to the wells of an ELISA plate previously coated with a specific antibody recognizing the substrate of the enzymatic phosphorylation reaction. Non-substrate components of the cell lysate are washed away and the amount of phosphorylation on the substrate is detected with an antibody specifically recognizing phosphotyrosine compared with control cells that were not contacted with a test compound. HER-2 ELISA […] EGF Receptor-HER2 Chimeric Receptor Assay in Whole Cells. HER2 kinase activity in whole EGFR-NIH3T3 cells are measured as described below: Materials and Reagents. The following materials and reagents can be used to conduct the assay: a. EGF: stock concentration: 16.5 ILM; EGF 201, TOYOBO, Co., Ltd. Japan. b. 05-101 (UBI) (a monoclonal antibody recognizing an EGFR extracellular domain). c. Anti-phosphotyrosine antibody (anti-Ptyr) (polyclonal)(see, Fendley, et al., supra). d. Detection antibody: Goat anti-rabbit lgG horse radish peroxidase conjugate, TAGO, Inc., Burlingame, Calif. e. TBST buffer: [table] f. HNTG 5×stock: [table] g. ABTS stock: [table] h. Stock reagents of: [table] Procedure. The following protocol is used: A. Pre-coat ELISA Plate […] Coat ELISA plates (Corning, 96 well, Cat. #25805-96) with 05-101 antibody at 0.5 µg per well in PBS, 100 μL final volume/well, and store overnight at 4° C. Coated plates are good for up to 10 days when stored at 4° C. 2. On day of use, remove coating buffer and replace with 100 μL blocking buffer (5% Carnation Instant Non-Fat Dry Milk in PBS). Incubate the plate, shaking, at room temperature (about 23° C. to 25° C.) for 30 minutes. Just prior to use, remove blocking buffer and wash plate 4 times with TBST buffer. B. Seeding Cells […] An NIH3T3 cell line overexpressing a chimeric receptor containing the EGFR extracellular domain and intracellular HER2 kinase domain can be used for this assay. 2. Choose dishes having 80-90% confluence for the experiment. […]

Chain of HER2 Kinase (P00533 25-645): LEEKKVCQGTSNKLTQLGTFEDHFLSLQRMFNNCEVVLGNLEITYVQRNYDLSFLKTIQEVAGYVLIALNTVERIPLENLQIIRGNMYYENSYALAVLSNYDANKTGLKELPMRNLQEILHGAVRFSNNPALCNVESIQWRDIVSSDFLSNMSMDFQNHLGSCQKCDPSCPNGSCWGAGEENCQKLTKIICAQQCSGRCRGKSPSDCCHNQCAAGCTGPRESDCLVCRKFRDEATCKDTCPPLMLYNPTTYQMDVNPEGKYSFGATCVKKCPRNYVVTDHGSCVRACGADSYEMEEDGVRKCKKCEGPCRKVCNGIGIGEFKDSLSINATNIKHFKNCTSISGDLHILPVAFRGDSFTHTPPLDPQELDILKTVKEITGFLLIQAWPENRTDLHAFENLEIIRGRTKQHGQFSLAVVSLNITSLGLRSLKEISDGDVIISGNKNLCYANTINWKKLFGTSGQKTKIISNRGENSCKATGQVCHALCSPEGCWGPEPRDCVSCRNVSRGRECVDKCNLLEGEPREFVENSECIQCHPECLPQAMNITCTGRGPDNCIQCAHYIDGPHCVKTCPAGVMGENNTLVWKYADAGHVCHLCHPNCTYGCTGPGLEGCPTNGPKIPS
Chain of HER2 Kinase (P04626 676-1255): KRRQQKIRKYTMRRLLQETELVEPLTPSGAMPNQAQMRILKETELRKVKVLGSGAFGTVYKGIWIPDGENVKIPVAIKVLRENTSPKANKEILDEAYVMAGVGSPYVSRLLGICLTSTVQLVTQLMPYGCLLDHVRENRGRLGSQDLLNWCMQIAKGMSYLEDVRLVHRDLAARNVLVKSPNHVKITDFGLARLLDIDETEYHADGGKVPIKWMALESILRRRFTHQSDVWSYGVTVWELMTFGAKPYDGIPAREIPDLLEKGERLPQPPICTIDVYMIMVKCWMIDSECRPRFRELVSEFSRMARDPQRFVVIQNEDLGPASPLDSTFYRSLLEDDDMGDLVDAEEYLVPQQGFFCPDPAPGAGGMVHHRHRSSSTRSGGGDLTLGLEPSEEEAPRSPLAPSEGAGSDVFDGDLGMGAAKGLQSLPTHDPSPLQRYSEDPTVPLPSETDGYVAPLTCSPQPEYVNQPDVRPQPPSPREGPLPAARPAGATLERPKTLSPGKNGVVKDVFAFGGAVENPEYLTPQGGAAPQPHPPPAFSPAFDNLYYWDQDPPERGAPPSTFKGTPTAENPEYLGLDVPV

Row | Compound | IC50 [µM]
1 | CCOC(=O)c1c[nH]c(C=C2C(=O)Nc3ccccc32)c1C [3-(4-ethoxycarbonyl-3-methylpyrrol-2-methylidenyl)-2-indolinone] | > 100
2 | CCOC(=O)CCc1c(C(=O)OCC)[nH]c(C=C2C(=O)Nc3ccccc32)c1CC(=O)OCC [3-[2-ethoxycarbonyl-3-(2-ethoxycarbonylethyl)-4-ethoxycarbonylmethyl)pyrrol-5-methylidenyl)-2-indolinone] | > 10
3 | COC(=O)CCc1c[nH]c(C=C2C(=O)Nc3cc(OC)c(OC)cc32)c1C [3-[4-(2-methoxycarbonylethyl)-3-methylpyrrol-2-methylidenyl]-5,6-dimethoxy-2-indolinone] | > 50
